# Test results as given in patent US20080075796A1, “Compositions and Methods for Controlling Insects” (TyraTech, Inc., priority 2003, published 2008).
# Several values for one entry are separate records, joined by “and”; a condition that tells them apart may be missing. Equal entries are not always repeated.
# Legend:
# Or43a receptor = target: T1, Or43a receptor (Drosophila melanogaster, UniProt P81917, L154V); assay: Intracellular Ca^2+ mobilization in Schneider cells expressing Or43a receptor; format: cell-based; settings: before vs approximately 150 seconds after treatment
# T1 construct: His (from vector pAc5.1/V5-His B) (C); expressed in transfected cells
# T1 sequence (P81917 whole entry L154V): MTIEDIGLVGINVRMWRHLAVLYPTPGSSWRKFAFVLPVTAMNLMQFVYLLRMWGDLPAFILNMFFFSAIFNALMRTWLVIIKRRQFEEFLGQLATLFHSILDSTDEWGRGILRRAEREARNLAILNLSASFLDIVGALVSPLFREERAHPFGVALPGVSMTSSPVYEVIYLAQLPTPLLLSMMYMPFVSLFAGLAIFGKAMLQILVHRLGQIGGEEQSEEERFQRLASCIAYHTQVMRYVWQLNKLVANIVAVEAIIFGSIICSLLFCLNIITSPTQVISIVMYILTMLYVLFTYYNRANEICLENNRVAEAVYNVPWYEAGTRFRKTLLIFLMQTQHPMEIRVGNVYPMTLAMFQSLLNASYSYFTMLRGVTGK
# Experimental: Intracellular calcium ion concentrations ([Ca^2+]i) are measured by using the acetoxymethyl (AM) ester of the fluorescent indicator fura-2 (Enan, et al., Biochem. Pharmacol vol 51, 447-454). In this study, cells expressing tyramine receptor are grown under standard conditions. A cell suspension is prepared in assay buffer (140 mM NaCL, 10 mM HEPES, 10 mM glucose, 5 mM KCl, 1 mM CaCl2, 1 mM MgCl2) and cell number adjusted to about 2×10^6 cells per ml. Briefly, about 1.0 ml cell suspension (about 2×10^6 cells) is incubated with about 5 μM Fura 2/AM for about 30 min at about 28° C. After incubation, the cells are pelleted at about 3700 rpm for about 10 sec at room temperature and then resuspended in about 1.5 ml assay buffer. [Ca^2+]i changes are analyzed in spectrofluorometer in the presence and absence of test chemicals. Excitation wave lengths are about 340 nm (generated by Ca^2+-bound fura-2) and about 380 nm (corresponding to Ca^2+-free fura-2). The fluorescence intensity is monitored at an emission wave length of about 510 nm. No absorbance of fluorescence artifacts are observed with any of the compounds used. The ratio of about 340/380 nm is calculated and plotted as a function of time.
# Intracellular Ca^2+ levels are measured using the method described above in Example 3.
# Changes in intracellular Ca^2+ levels are calculated based on the difference between the 340/380 fluorescence ratios before and after approximately 150 seconds of the treatment.
# [1] = tested on: Drosophila melanogaster Or43a olfactory receptor, SEQ ID NO: 4; assay: Interaction of plant essential oils with Or43a receptor binding site (3H-tyramine); settings: membranes, FIGS. 16, 17, 19-21
# Experimental: (§1) Total RNA is prepared from the head and antenna of wild type Drosophila melanogaster using Trizol Reagent (Invitrogen). They are homogenized in the Trizol using a motor driven teflon pestle and glass homogenizer. RNA is then prepared as per the manufacturer's instructions and includes removal of proteoglycans and polysaccharides by precipitation. The total RNA is reverse transcribed using oligo-dT as a primer and MuLV reverse transcriptase (Applied Biosystems). […] The Sense oligonucleotides contain Not I sites and the antisense oligonucleotides contain Sac II sites. Both restriction sites are indicated by underlined nucleotide. […] For PCR amplification of Or83b, Vent polymerase (New England Biolabs) is used with the following conditions: about 95° C., about 5 min for about 1 cycle; about 95° C., about 30 sec; and about 70° C., about 90 sec for about 40 cycles; and about 70° C., about 10 min for about 1 cycle. For PCR amplification of Or43a, the Failsafe PCR premix selection kit (Epicentre Technologies) is used with the following conditions: about 95° C., about 5 mill for about 1 cycle; about 95° C., about 30 sec; about 60° C., about 30 sec and about 70° C., about 90 sec for about 50 cycles; and about 70° C., about 10 min for about 1 cycle. […] The PCR products are digested with Sac II and Not I, gel purified and ligated into pAC 5.1/N5 His B (Invitrogen). Inserts are sequenced on both strands by automated fluorescent sequencing (Vanderbilt Cancer Center).
# (§2) To address whether Or83b receptor and Or43a receptor contain a specific binding site for tyramine, membranes expressing Or83b receptor or Or43a receptor are prepared from cells expressing either receptor, as described above, and used for competitive binding with ^3H-tyramine. The binding assay protocol is exactly as described for cells expressing TyrR, as described above.
# (§3) The cells expressing one of the olfactory receptors are used to investigate the interaction of plant essential oils with these receptors and the signaling cascade downstream of each receptor.
# (§4) For the binding activity, membranes are prepared from each cell model and used to investigate the interaction of plant essential oil with the receptor binding site.
# [2] = tested on: Drosophila melanogaster Or83b olfactory receptor, SEQ ID NO: 6; assay: Interaction of plant essential oils with Or83b receptor binding site (3H-tyramine); settings: membranes, FIGS. 16, 18-21
# Experimental: as §1, §2, §3, §4
# [3] = tested on: Or83b and Or43a receptors; assay: Interaction of plant essential oils with olfactory receptor binding site (membranes, ^3H-tyramine); set-up: species or system Drosophila melanogaster; settings: membranes incubated with ^3H-tyramine
# Experimental: as §3, §4
# farm ants = assay: Repellent effect on farm ants (treated filter paper); format: in vivo; settings: for repellency: in words
# Experimental: Adult insect are randomly selected for testing the repellent effect of compositions and are not individually marked. About 5 insects per replicate are used. About 3 replicates are used for each treatment. Untreated control tests are included with only solvent (acetone) application to an equal sized population/replications, held under identical conditions. A filter paper (about 80 cm^2) is treated with the composition (about 100 mg in […] acetone). After about 3 min of air drying, the filter paper is placed in a dish and repellency against insects is performed. Insects are released to the dish, one insect at a time at the far end of the dish. Using one or more stopwatches, the time spent on either the filter paper or the untreated surface of the dish is recorded up to about 300 seconds. Repellency ratio (RR) is calculated as follows: RR=[(time on control surface−time on treated surface)/total time of test].
# The repellent effect of various plant essential oils is tested by treating a filter paper with the test oils. After about five minutes at room temperature, the paper is placed in a dish and ants are introduced one at a time. […] Oils are tested alone. Additionally, oils are mixed to form compositions, which are then tested.
# [4] = Day 0, test up to about 300 seconds
# [5] = Day 0, time on treated surface of up to about 300 seconds
Compound,change in intracellular Ca^2+ levels (340/380 fluorescence ratio) (Or43a receptor),interaction with the olfactory receptor [1],interaction with the olfactory receptor [2],interaction with the olfactory receptors [3],"Repellency %, R % (farm ants; Day 0) [%]",sec. on T surface (farm ants; [4]) [s],sec. on T surface (farm ants; [5]) [s],sec. on T surface (farm ants; Day 1),"sec. on T surface (farm ants; Day 1, test up to about 300 seconds)","Repellency %, R % (farm ants; Day 1) [%]",repellency (farm ants)
C=C(C)[C@H]1CC=C(C)CC1 [d-limonene],calcium mobilization,interact,interact,interact with the olfactory receptors,62.9,55.7,55.7,136.2 s and 136.4 s and 133.6 s,136.2 s and 136.4 s and 133.6 s,,
C=C(C)[C@@H]1CC=C(CO)CC1 [perillyl alcohol],calcium mobilization,,,,,,,,,,
terpinene 900 [listing 1 of 2 here],,interact,interact,,,,,,,,
CC1=CCC(C(C)(C)O)CC1 (stereo not drawn) [α-terpineol],,interact,interact,interact with the olfactory receptors,26.9,,109.6,,,,
C=CC(C)(CCC=C(C)C)OC(=O)c1ccccc1N (stereo not drawn) [linalyl anthranilate],calcium mobilization,interact,interact,interact with the olfactory receptors,69.2,,46.2,104.6 s,,30.7,
OCc1ccc2c(c1)OCO2 [piperonyl alcohol],calcium mobilization,interact,interact,interact with the olfactory receptors,,,,,,,
O=Cc1ccc2c(c1)OCO2 [piperonal],decreases the intracellular Ca^2+ levels,interact,interact,interact with the olfactory receptors,37.6,,93.6,125.8 s,,16.1,
NCc1ccc2c(c1)OCO2 [piperonyl amine],calcium mobilization,interact,interact,interact with the olfactory receptors,48.3,,77.6,111.2 s,,25.9,
CC(C)[C@]12CC(=O)[C@H](C)[C@H]1C2 [α-thujone],calcium mobilization,interact,interact,interact with the olfactory receptors,,,,,,,display repellency
CCOC(=O)c1ccccc1C(=O)OCC [diethyl phthalate],,interact,interact,interact with the olfactory receptors,,,,,,,
C=C(C)[C@H]1CC=C(C)C(=O)C1 [d-carvone],calcium mobilization,,,,,,,,,,
C=C1CCC2(C(C)C)CC12 (stereo not drawn) [sabinene],calcium mobilization,interact,interact,interact with the olfactory receptors,,,,,,,display repellency
Cc1ccc(C(C)C)cc1O [carvacrol],calcium mobilization,interact,interact,interact with the olfactory receptors,,,,,,,display repellency
lindenol [listing 1 of 2 here],calcium mobilization,,,interact with the olfactory receptors,,,144.2,,,,
C/C=C/c1ccc(OC)cc1 [t-anethole],,interact,interact,interact with the olfactory receptors,,,,,,,
l-carvone,calcium mobilization,,,,,,,,,,
lindenol [listing 2 of 2 here],,interact,interact,,04.0,144.2,,,,,
terpinene 900 [listing 2 of 2 here],calcium mobilization,,,interact with the olfactory receptors,,,,,,,
C=C[C@H]1C[N@@]2CC[C@H]1C[C@H]2[C@H](O)c1ccnc2ccc(OC)cc12 [quinine],calcium mobilization,,,,,,,,,,
O=C1C=CC(=O)C=C1 [quinone],,interact,interact,interact with the olfactory receptors,,,,,,,
